Test results as given in ChEMBL document CHEMBL1201862, “PubChem BioAssay data set” (2004).
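Briefly, cells in 96-well plates were exposed to five compound concentrations for 48 h, and endpoints were estimated by linear interpolation. At the GI50, growth is halved.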 Calls of active or inactive are those of the source. No stated cut-off is given here; in the data, active = GI50 up to about 1.1 µM and inactive = higher.

How the values were obtained:
Assay in all cases: inhibition of tumour cell growth, NCI panel, 48 h
MCF7 = system: MCF7
SK-MEL-5 = system: SK-MEL-5
SNB-19 = system: SNB-19
MDA-MB-231 = system: MDA-MB-231
SF-539 = system: SF-539
SN12C = system: SN12C
PC-3 = system: PC-3
IGROV-1 = system: IGROV-1
EKVX = system: EKVX
RPMI-8226 = system: RPMI-8226
LOX IMVI = system: LOX IMVI
SK-OV-3 = system: SK-OV-3
M14 = system: M14
NCI/ADR-RES = system: NCI/ADR-RES
SK-MEL-28 = system: SK-MEL-28
UACC-62 = system: UACC-62
K562 = system: K562
A549 = system: A549
SF-268 = system: SF-268
DU-145 = system: DU-145
Hs-578T = system: Hs-578T
U-251 = system: U-251
HOP-92 = system: HOP-92
HL-60 = system: HL-60
BT-549 = system: BT-549
HOP-62 = system: HOP-62
MDA-MB-435 = system: MDA-MB-435
CAKI-1 = system: CAKI-1
786-0 = system: 786-0
TK-10 = system: TK-10
T47D = system: T47D
A498 = system: A498
SNB-75 = system: SNB-75
HCC 2998 = system: HCC 2998
NCI-H522 = system: NCI-H522
Malme-3M = system: Malme-3M
HCT-116 = system: HCT-116
SF-295 = system: SF-295
NCI-H460 = system: NCI-H460
UACC-257 = system: UACC-257
OVCAR-4 = system: OVCAR-4
MDA-N = system: MDA-N
CCRF-CEM = system: CCRF-CEM
KM12 = system: KM12
HT-29 = system: HT-29
NCI-H23 = system: NCI-H23
COLO 205 = system: COLO 205
OVCAR-8 = system: OVCAR-8
OVCAR-3 = system: OVCAR-3
SW-620 = system: SW-620
HCT-15 = system: HCT-15
SK-MEL-2 = system: SK-MEL-2
OVCAR-5 = system: OVCAR-5
ACHN = system: ACHN
UO-31 = system: UO-31
RXF 393 = system: RXF 393
MOLT-4 = system: MOLT-4
NCI-H226 = system: NCI-H226

With `N/C(=N\NC(=O)c1nc2ccccc2s1)c1ccccn1` the GI50 (MCF7) was 4.39 µM (inactive), the GI50 (SK-MEL-5) was 4.24 µM (inactive) and the GI50 (SNB-19) was 16 µM (inactive). The GI50 (MDA-MB-231) was 14 µM (inactive), the GI50 (SF-539) was 3.59 µM (inactive) and the GI50 (SN12C) was 1.61 µM (inactive). The GI50 (PC-3) was 9.31 µM (inactive), the GI50 (IGROV-1) was 12.8 µM (inactive) and the GI50 (EKVX) was 3.68 µM (inactive). For the same molecule, the GI50 (RPMI-8226) was 2.46 µM (inactive), the GI50 (LOX IMVI) was 4.93 µM (inactive) and the GI50 (SK-OV-3) was 9.79 µM (inactive). For the same molecule, the GI50 (M14) was 3.01 µM (inactive), the GI50 (NCI/ADR-RES) was 1.11 µM (active) and the GI50 (SK-MEL-28) was 43.2 µM (inactive). For the same molecule, the GI50 (UACC-62) was 3.95 µM (inactive), the GI50 (K562) was 4.5 µM (inactive) and the GI50 (A549) was 3.19 µM (inactive). The GI50 (SF-268) was 6.87 µM (inactive), the GI50 (DU-145) was 4.27 µM (inactive) and the GI50 (Hs-578T) was > 100 µM (inactive). For the same molecule, the GI50 (U-251) was 4.79 µM (inactive), the GI50 (HOP-92) was > 34 µM (inactive) and the GI50 (HL-60) was 0.452 µM (active). For the same molecule, the GI50 (BT-549) was 31.3 µM (inactive), the GI50 (HOP-62) was 10.3 µM (inactive) and the GI50 (MDA-MB-435) was 7.1 µM (inactive). The GI50 (CAKI-1) was 1.55 µM (inactive), the GI50 (786-0) was 4.33 µM (inactive) and the GI50 (TK-10) was 7.8 µM (inactive). For the same molecule, the GI50 (T47D) was 10.6 µM (inactive), the GI50 (A498) was 8.34 µM (inactive) and the GI50 (SNB-75) was 7.74 µM (inactive). For the same molecule, the GI50 (HCC 2998) was 8.17 µM (inactive), the GI50 (NCI-H522) was 13.8 µM (inactive) and the GI50 (Malme-3M) was 30 µM (inactive). The GI50 (HCT-116) was 3.28 µM (inactive), the GI50 (SF-295) was 3.83 µM (inactive) and the GI50 (NCI-H460) was 2.85 µM (inactive). The GI50 (UACC-257) was 15.6 µM (inactive), the GI50 (OVCAR-4) was 0.706 µM (active) and the GI50 (MDA-N) was 11.7 µM (inactive). For the same molecule, the GI50 (CCRF-CEM) was 2.42 µM (inactive), the GI50 (KM12) was 8.79 µM (inactive) and the GI50 (HT-29) was 4.08 µM (inactive). The GI50 (NCI-H23) was 9.86 µM (inactive), the GI50 (COLO 205) was 4.73 µM (inactive) and the GI50 (OVCAR-8) was 5.33 µM (inactive). The GI50 (OVCAR-3) was 3.92 µM (inactive), the GI50 (SW-620) was 6.82 µM (inactive) and the GI50 (HCT-15) was 2.56 µM. For the same molecule, the GI50 (SK-MEL-2) was 19.5 µM (inactive), the GI50 (OVCAR-5) was 5.89 µM (inactive) and the GI50 (ACHN) was 2.87 µM (inactive). The GI50 (UO-31) was 2.26 µM (inactive), the GI50 (RXF 393) was 7.96 µM (inactive) and the GI50 (MOLT-4) was 1.29 µM (inactive).
In the case of `O=C(O)c1ccc(N/C(=C(/C(Cl)=C(Cl)Cl)[N+](=O)[O-])n2nnc3ccccc32)cc1`, the GI50 (MCF7) is reported as > 100 µM (inactive), the GI50 (SNB-19) is reported as > 100 µM (inactive) and the GI50 (MDA-MB-231) is reported as > 100 µM (inactive). The GI50 (SF-539) was > 100 µM (inactive), the GI50 (SN12C) was > 100 µM (inactive) and the GI50 (PC-3) was > 100 µM (inactive). The GI50 (EKVX) was > 100 µM (inactive), the GI50 (RPMI-8226) was > 100 µM (inactive) and the GI50 (SK-OV-3) was > 100 µM (inactive). The GI50 (M14) was > 100 µM (inactive), the GI50 (NCI/ADR-RES) was > 100 µM (inactive) and the GI50 (SK-MEL-28) was > 100 µM (inactive). For the same molecule, the GI50 (UACC-62) was > 100 µM (inactive), the GI50 (K562) was > 100 µM (inactive) and the GI50 (A549) was > 100 µM (inactive). The GI50 (SF-268) was > 100 µM (inactive), the GI50 (Hs-578T) was > 100 µM (inactive) and the GI50 (U-251) was > 100 µM (inactive). For the same molecule, the GI50 (BT-549) was > 100 µM (inactive), the GI50 (HOP-62) was > 100 µM (inactive) and the GI50 (MDA-MB-435) was > 100 µM (inactive). The GI50 (CAKI-1) was > 100 µM (inactive), the GI50 (786-0) was > 100 µM (inactive) and the GI50 (NCI-H226) was > 100 µM (inactive). For the same molecule, the GI50 (T47D) was > 100 µM (inactive), the GI50 (A498) was > 100 µM (inactive) and the GI50 (HCC 2998) was > 100 µM (inactive). For the same molecule, the GI50 (Malme-3M) was > 100 µM (inactive), the GI50 (HCT-116) was > 100 µM (inactive) and the GI50 (SF-295) was > 100 µM (inactive). The GI50 (NCI-H460) was > 100 µM (inactive), the GI50 (UACC-257) was > 100 µM (inactive) and the GI50 (OVCAR-4) was > 100 µM (inactive). The GI50 (MDA-N) was > 100 µM (inactive), the GI50 (CCRF-CEM) was > 100 µM (inactive) and the GI50 (KM12) was > 100 µM (inactive). For the same molecule, the GI50 (HT-29) was > 100 µM (inactive), the GI50 (NCI-H23) was > 100 µM (inactive) and the GI50 (COLO 205) was > 100 µM (inactive). For the same molecule, the GI50 (OVCAR-8) was > 100 µM (inactive), the GI50 (OVCAR-3) was > 100 µM (inactive) and the GI50 (SW-620) was > 100 µM (inactive). The GI50 (HCT-15) was greater than 100 µM, the GI50 (SK-MEL-2) was > 100 µM (inactive) and the GI50 (OVCAR-5) was > 100 µM (inactive). For the same molecule, the GI50 (ACHN) was > 100 µM (inactive), the GI50 (UO-31) was > 100 µM (inactive) and the GI50 (MOLT-4) was > 100 µM (inactive).
In the case of `O=C1c2ccccc2C2(c3ccc(F)cc3)NCCN12` (centres undefined), the GI50 (MCF7) is reported as > 100 µM (inactive), the GI50 (SK-MEL-5) is reported as > 100 µM (inactive) and the GI50 (SNB-19) is reported as > 100 µM (inactive). The GI50 (MDA-MB-231) was > 100 µM (inactive), the GI50 (SN12C) was > 100 µM (inactive) and the GI50 (PC-3) was > 100 µM (inactive). The GI50 (IGROV-1) was > 100 µM (inactive), the GI50 (EKVX) was > 100 µM (inactive) and the GI50 (RPMI-8226) was > 100 µM (inactive). The GI50 (SK-OV-3) was > 100 µM (inactive), the GI50 (M14) was > 100 µM (inactive) and the GI50 (NCI/ADR-RES) was > 100 µM (inactive). For the same molecule, the GI50 (SK-MEL-28) was > 100 µM (inactive), the GI50 (UACC-62) was > 100 µM (inactive) and the GI50 (K562) was > 100 µM (inactive). The GI50 (A549) was > 100 µM (inactive), the GI50 (SF-268) was > 100 µM (inactive) and the GI50 (DU-145) was > 100 µM (inactive). The GI50 (Hs-578T) was > 100 µM (inactive), the GI50 (U-251) was > 100 µM (inactive) and the GI50 (HL-60) was > 100 µM (inactive). For the same molecule, the GI50 (BT-549) was > 100 µM (inactive), the GI50 (HOP-62) was > 100 µM (inactive) and the GI50 (MDA-MB-435) was > 100 µM (inactive). For the same molecule, the GI50 (CAKI-1) was > 100 µM (inactive), the GI50 (786-0) was > 100 µM (inactive) and the GI50 (TK-10) was > 100 µM (inactive). The GI50 (NCI-H226) was > 100 µM (inactive), the GI50 (T47D) was > 100 µM (inactive) and the GI50 (SNB-75) was > 100 µM (inactive). For the same molecule, the GI50 (HCC 2998) was > 100 µM (inactive), the GI50 (NCI-H522) was > 100 µM (inactive) and the GI50 (Malme-3M) was > 100 µM (inactive). The GI50 (HCT-116) was > 100 µM (inactive), the GI50 (SF-295) was > 100 µM (inactive) and the GI50 (NCI-H460) was > 100 µM (inactive). The GI50 (UACC-257) was > 100 µM (inactive), the GI50 (OVCAR-4) was > 100 µM (inactive) and the GI50 (MDA-N) was > 100 µM (inactive). For the same molecule, the GI50 (CCRF-CEM) was > 100 µM (inactive), the GI50 (KM12) was > 100 µM (inactive) and the GI50 (HT-29) was > 100 µM (inactive). The GI50 (NCI-H23) was > 100 µM (inactive), the GI50 (COLO 205) was > 100 µM (inactive) and the GI50 (OVCAR-8) was > 100 µM (inactive). The GI50 (OVCAR-3) was > 100 µM (inactive), the GI50 (SW-620) was > 100 µM (inactive) and the GI50 (HCT-15) was greater than 100 µM. The GI50 (SK-MEL-2) was > 100 µM (inactive), the GI50 (OVCAR-5) was > 100 µM (inactive) and the GI50 (ACHN) was > 100 µM (inactive). The GI50 (UO-31) was > 100 µM (inactive), the GI50 (RXF 393) was > 100 µM (inactive) and the GI50 (MOLT-4) was > 100 µM (inactive).
